From PubChem BioAssay (NCI)
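Protocol summary: plate cells (96-well), add compound at 5 concentrations, incubate 48 h, interpolate endpoints linearly. GI50 marks 50% less growth. TGI: concentration producing complete growth inhibition.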

Experiments:
Assay in all cases: NCI anticancer screen, dose series, 48 h
SK-MEL-28 melanoma = tested on: SK-MEL-28 melanoma
OVCAR-8 ovarian = tested on: OVCAR-8 ovarian
SN12C renal = tested on: SN12C renal
SF-295 CNS = tested on: SF-295 CNS
NCI-H522 lung = tested on: NCI-H522 lung
OVCAR-4 ovarian = tested on: OVCAR-4 ovarian
DU-145 prostate = tested on: DU-145 prostate
SK-MEL-2 melanoma = tested on: SK-MEL-2 melanoma
EKVX NSCLC = tested on: EKVX NSCLC
HCT-15 colon = tested on: HCT-15 colon

CCOC(=O)C(=Cc1ccc(Br)cc1)C(=O)OCC
GI50 (SK-MEL-28 melanoma): 1.89 µM | TGI (SK-MEL-28 melanoma): 3.62 µM | GI50 (OVCAR-8 ovarian): 2.36 µM | TGI (OVCAR-8 ovarian): 6.79 µM | GI50 (SN12C renal): 2.03 µM | TGI (SN12C renal): 4.21 µM | GI50 (SF-295 CNS): 2.74 µM | TGI (SF-295 CNS): 9.36 µM | GI50 (NCI-H522 lung): 1.75 µM | TGI (NCI-H522 lung): 4.22 µM | GI50 (OVCAR-4 ovarian): 3.06 µM | TGI (OVCAR-4 ovarian): 10.4 µM | GI50 (DU-145 prostate): 1.68 µM | TGI (DU-145 prostate): 3.07 µM | GI50 (SK-MEL-2 melanoma): 2.02 µM | TGI (SK-MEL-2 melanoma): 4.39 µM | GI50 (EKVX NSCLC): 1.88 µM | TGI (EKVX NSCLC): 4.64 µM | GI50 (HCT-15 colon): 1.44 µM | TGI (HCT-15 colon): 3.5 µM

O=S(=O)(Nc1ccc(Cl)c(C(F)(F)F)c1)c1ccc(-c2cnc(C3CC3)o2)cc1
GI50 (SK-MEL-28 melanoma): 1.17 µM | TGI (SK-MEL-28 melanoma): 5.79 µM | GI50 (OVCAR-8 ovarian): 1.54 µM | TGI (OVCAR-8 ovarian): > 36.2 µM | GI50 (SN12C renal): 1.05 µM | TGI (SN12C renal): 4.71 µM | GI50 (SF-295 CNS): 0.131 µM | TGI (SF-295 CNS): 2.12 µM | GI50 (NCI-H522 lung): 0.149 µM | TGI (NCI-H522 lung): 3.25 µM | GI50 (OVCAR-4 ovarian): 1.63 µM | TGI (OVCAR-4 ovarian): 9.75 µM | GI50 (DU-145 prostate): 1.28 µM | TGI (DU-145 prostate): 10.6 µM | GI50 (SK-MEL-2 melanoma): 0.343 µM | TGI (SK-MEL-2 melanoma): 3.67 µM | GI50 (EKVX NSCLC): 1.34 µM | TGI (EKVX NSCLC): 9.29 µM | GI50 (HCT-15 colon): 0.156 µM | TGI (HCT-15 colon): 5.57 µM

O=C1OC(c2ccc([N+](=O)[O-])cc2)=N/C1=C\c1ccc(O)cc1
TGI (SK-MEL-28 melanoma): > 100 µM | TGI (OVCAR-8 ovarian): > 100 µM | TGI (SN12C renal): > 100 µM | TGI (SF-295 CNS): > 100 µM | TGI (NCI-H522 lung): > 100 µM | TGI (OVCAR-4 ovarian): > 100 µM | TGI (DU-145 prostate): > 100 µM | TGI (SK-MEL-2 melanoma): > 100 µM | TGI (EKVX NSCLC): > 100 µM | TGI (HCT-15 colon): > 100 µM

NC(C(=O)O)C(N)C(=O)O (stereo not given)
TGI (SK-MEL-28 melanoma): > 100 µM | TGI (OVCAR-8 ovarian): > 100 µM | TGI (SN12C renal): > 100 µM | TGI (SF-295 CNS): > 100 µM | TGI (NCI-H522 lung): > 100 µM | TGI (OVCAR-4 ovarian): > 100 µM | TGI (DU-145 prostate): > 100 µM | TGI (SK-MEL-2 melanoma): > 100 µM | TGI (EKVX NSCLC): > 100 µM | TGI (HCT-15 colon): > 100 µM

Cc1oc2c(c1C(=O)c1ccccc1)C(=O)c1ccccc1C2=O
TGI (SK-MEL-28 melanoma): 24.3 µM | TGI (OVCAR-8 ovarian): 18.6 µM | TGI (SN12C renal): 25.2 µM | TGI (SF-295 CNS): 22.1 µM | TGI (NCI-H522 lung): 5.86 µM | TGI (OVCAR-4 ovarian): 9.95 µM | TGI (DU-145 prostate): 24.6 µM | TGI (SK-MEL-2 melanoma): 9.04 µM | TGI (EKVX NSCLC): 29.6 µM | TGI (HCT-15 colon): 18.7 µM

CSC(=S)NN=C1CCCCC1
TGI (SK-MEL-28 melanoma): > 100 µM | TGI (OVCAR-8 ovarian): > 100 µM | TGI (SN12C renal): 84.9 µM | TGI (SF-295 CNS): > 100 µM | TGI (NCI-H522 lung): 88.7 µM | TGI (OVCAR-4 ovarian): > 100 µM | TGI (DU-145 prostate): > 100 µM | TGI (SK-MEL-2 melanoma): > 100 µM | TGI (EKVX NSCLC): > 100 µM | TGI (HCT-15 colon): > 100 µM

c1ccc(-c2cc(-c3cc(-c4ccccn4)[nH]n3)n[nH]2)nc1
TGI (SK-MEL-28 melanoma): > 100 µM | TGI (OVCAR-8 ovarian): > 100 µM | TGI (SN12C renal): > 100 µM | TGI (SF-295 CNS): > 100 µM | TGI (NCI-H522 lung): > 100 µM | TGI (OVCAR-4 ovarian): > 100 µM | TGI (DU-145 prostate): > 100 µM | TGI (SK-MEL-2 melanoma): > 100 µM | TGI (EKVX NSCLC): > 100 µM | TGI (HCT-15 colon): > 100 µM

O=[N+]([O-])c1ccc(N(CCO)CCO)c2c1no[n+]2[O-]
GI50 (SK-MEL-28 melanoma): 1.98 µM | TGI (SK-MEL-28 melanoma): 5.66 µM | GI50 (OVCAR-8 ovarian): 1.37 µM | TGI (OVCAR-8 ovarian): 7.02 µM | GI50 (SN12C renal): 1.61 µM | TGI (SN12C renal): 9.28 µM | GI50 (SF-295 CNS): 0.803 µM | TGI (SF-295 CNS): 3.38 µM | GI50 (NCI-H522 lung): 0.926 µM | TGI (NCI-H522 lung): 3.38 µM | GI50 (OVCAR-4 ovarian): 1.65 µM | TGI (OVCAR-4 ovarian): 6.62 µM | GI50 (DU-145 prostate): 1.68 µM | TGI (DU-145 prostate): 5.64 µM | GI50 (SK-MEL-2 melanoma): 1.8 µM | TGI (SK-MEL-2 melanoma): 4.78 µM | GI50 (EKVX NSCLC): 1.8 µM | TGI (EKVX NSCLC): 6.66 µM | GI50 (HCT-15 colon): 1.56 µM | TGI (HCT-15 colon): 7.06 µM

O=C(c1cccs1)c1c(C(F)(F)F)n([O-])c2cc(F)c(F)cc2[n+]1=O
GI50 (SK-MEL-28 melanoma): 1.91 µM | TGI (SK-MEL-28 melanoma): 3.7 µM | GI50 (OVCAR-8 ovarian): 2.77 µM | TGI (OVCAR-8 ovarian): 5.16 µM | GI50 (SN12C renal): 1.38 µM | TGI (SN12C renal): 3.59 µM | GI50 (SF-295 CNS): 3.71 µM | TGI (SF-295 CNS): 7.3 µM | GI50 (NCI-H522 lung): 1.84 µM | TGI (NCI-H522 lung): 3.13 µM | GI50 (OVCAR-4 ovarian): 31.9 µM | TGI (OVCAR-4 ovarian): 50 µM | GI50 (DU-145 prostate): 1.9 µM | TGI (DU-145 prostate): 4.86 µM | GI50 (SK-MEL-2 melanoma): 5.44 µM | TGI (SK-MEL-2 melanoma): 8.63 µM | GI50 (EKVX NSCLC): 2.44 µM | TGI (EKVX NSCLC): 6.73 µM | GI50 (HCT-15 colon): 0.851 µM | TGI (HCT-15 colon): 2.25 µM
